Test results published in patent US20260327214A1, “1,3,4-OXADIAZOLE DERIVATIVE COMPOUNDS AS HISTONE DEACETYLASE 6 INHIBITOR, AND USES THEREOF” (CHONG KUN DANG PHARMACEUTICAL CORP., priority 2022, published 2026).

Columns and labels:
human recombinant HDAC1 = molecular target: T1, human recombinant HDAC1 (Homo sapiens, UniProt Q13547); test: HDAC1 enzyme activity inhibition test (HDAC Fluorometric Drug Discovery Kit); format: biochemical; settings: 30° C., 60 minutes, 10 μM substrate
T1 construct: purchased Enzo Life Science BML-SE456
Outline: (§1)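 IC50 derived from fluorescence (Ex 360, Em 460) following 30 min development with Developer II. Each reaction held 0.3 μg human recombinant HDAC1 or HDAC6, 10 μM Fluor de Lys SIRT1 substrate and 5-fold serially diluted compound, incubated 60 min at 30 °C.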

human recombinant HDAC6 = molecular target: T2, human recombinant HDAC6 (Homo sapiens, UniProt Q9UBN7); test: HDAC6 enzyme activity inhibition test (HDAC Fluorometric Drug Discovery Kit); format: biochemical; settings: for HDAC6 selectivity (fold): HDAC6 over HDAC1; for IC50: human recombinant HDAC6, same protocol as HDAC1
T2 construct: purchased Calbiochem 382180
T2 sequence (Q9UBN7 1-1215): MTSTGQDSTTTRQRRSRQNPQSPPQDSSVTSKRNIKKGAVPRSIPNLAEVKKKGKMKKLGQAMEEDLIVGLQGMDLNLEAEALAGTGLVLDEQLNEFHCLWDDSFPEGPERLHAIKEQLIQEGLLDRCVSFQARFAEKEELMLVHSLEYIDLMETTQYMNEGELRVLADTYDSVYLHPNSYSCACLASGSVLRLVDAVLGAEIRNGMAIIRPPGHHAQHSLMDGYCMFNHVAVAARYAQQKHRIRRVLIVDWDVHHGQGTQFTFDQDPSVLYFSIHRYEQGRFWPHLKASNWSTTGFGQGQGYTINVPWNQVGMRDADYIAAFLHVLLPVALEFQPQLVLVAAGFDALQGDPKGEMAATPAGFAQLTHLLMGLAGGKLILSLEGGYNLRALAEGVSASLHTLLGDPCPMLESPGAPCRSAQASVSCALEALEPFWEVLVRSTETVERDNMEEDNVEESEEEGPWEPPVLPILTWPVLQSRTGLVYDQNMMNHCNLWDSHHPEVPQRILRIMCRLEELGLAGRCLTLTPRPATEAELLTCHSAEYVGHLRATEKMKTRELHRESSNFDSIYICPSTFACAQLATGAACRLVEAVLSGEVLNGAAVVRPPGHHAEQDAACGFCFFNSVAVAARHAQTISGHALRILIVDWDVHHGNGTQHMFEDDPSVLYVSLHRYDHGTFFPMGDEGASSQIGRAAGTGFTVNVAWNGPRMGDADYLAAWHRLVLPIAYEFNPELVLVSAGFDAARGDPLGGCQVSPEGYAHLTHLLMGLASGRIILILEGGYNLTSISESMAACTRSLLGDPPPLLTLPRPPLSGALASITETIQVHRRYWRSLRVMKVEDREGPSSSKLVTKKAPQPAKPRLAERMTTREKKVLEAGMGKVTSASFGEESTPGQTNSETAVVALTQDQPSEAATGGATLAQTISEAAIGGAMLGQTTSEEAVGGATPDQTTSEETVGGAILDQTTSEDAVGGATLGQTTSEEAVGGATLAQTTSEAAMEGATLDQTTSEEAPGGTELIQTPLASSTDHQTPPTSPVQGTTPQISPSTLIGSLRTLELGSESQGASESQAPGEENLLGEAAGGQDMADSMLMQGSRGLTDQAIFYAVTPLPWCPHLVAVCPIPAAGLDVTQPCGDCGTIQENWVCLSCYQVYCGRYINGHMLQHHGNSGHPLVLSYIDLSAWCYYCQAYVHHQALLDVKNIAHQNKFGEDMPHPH
Outline: as §1

T1 sequence (Q13547 whole entry): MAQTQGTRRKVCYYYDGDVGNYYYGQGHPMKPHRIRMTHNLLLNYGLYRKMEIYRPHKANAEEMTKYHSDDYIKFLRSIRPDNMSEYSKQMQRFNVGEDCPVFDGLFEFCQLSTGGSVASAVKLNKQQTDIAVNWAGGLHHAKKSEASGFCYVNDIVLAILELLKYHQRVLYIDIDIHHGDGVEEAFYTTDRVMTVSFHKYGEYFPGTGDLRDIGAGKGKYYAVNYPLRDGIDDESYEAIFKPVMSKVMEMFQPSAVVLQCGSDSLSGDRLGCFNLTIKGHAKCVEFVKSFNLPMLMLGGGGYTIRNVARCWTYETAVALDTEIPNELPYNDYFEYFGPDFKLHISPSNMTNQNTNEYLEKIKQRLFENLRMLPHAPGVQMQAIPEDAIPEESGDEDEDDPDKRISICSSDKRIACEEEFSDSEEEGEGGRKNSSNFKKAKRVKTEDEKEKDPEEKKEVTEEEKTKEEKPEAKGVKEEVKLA

O=C1OCC(c2cccs2)=NN1Cc1ccc(-c2nnc(C(F)F)o2)cn1 [Compound 69, 3-[[5-[5-(difluoromethyl)-1,3,4-oxadiazol-2-yl]-2-pyridyl]methyl]-5-(2-thienyl)-6H-1,3,4-oxadiazin-2-one]
IC50 (human recombinant HDAC1): > 50000 nM | HDAC6 selectivity (fold) (human recombinant HDAC6): 434 fold | IC50 (human recombinant HDAC6): 115 nM

FC(F)c1nnc(-c2ccc(Cn3nc(-c4cccc(CN5CCCCC5)c4)oc3=S)nc2)o1 [Compound 87, 3-[[5-[5-(difluoromethyl)-1,3,4-oxadiazol-2-yl]-2-pyridyl]methyl]-5-[3-(1-piperidylmethyl)phenyl]-1,3,4-oxadiazol-2-thione]
IC50 (human recombinant HDAC1): > 50000 nM | HDAC6 selectivity (fold) (human recombinant HDAC6): 556 fold | IC50 (human recombinant HDAC6): 89.9 nM

CC(=O)N1CC(N2CCC(c3cccc(-c4nn(Cc5ccc(-c6nnc(C(F)F)o6)cn5)c(=O)o4)c3F)CC2)C1 [Compound 28, 5-[3-[1-(1-acetylazetidine-3-yl)-4-piperidyl]-2-fluoro-phenyl]-3-[[5-[5-(difluoromethyl)-1,3,4-oxadiazol-2-yl]-2-pyridyl]methyl]-1,3,4-oxadiazol-2-one]
IC50 (human recombinant HDAC1): > 50000 nM | HDAC6 selectivity (fold) (human recombinant HDAC6): 626 fold | IC50 (human recombinant HDAC6): 79.9 nM

O=c1oc(-c2ccc(CN3CCCCC3)cc2)nn1Cc1ccc(-c2nnc(C(F)F)o2)cn1 [Compound 133, 3-[[5-[5-(difluoromethyl)-1,3,4-oxadiazol-2-yl]-2-pyridyl]methyl]-5-[4-(1-piperidylmethyl)phenyl]-1,3,4-oxadiazol-2-one]
IC50 (human recombinant HDAC1): > 50000 nM | HDAC6 selectivity (fold) (human recombinant HDAC6): 442 fold | IC50 (human recombinant HDAC6): 113 nM

O=c1oc(-c2cccc(N3CCNCC3)c2)nn1Cc1ccc(-c2nnc(C(F)F)o2)cn1 [Compound 36, 3-[[5-[5-(difluoromethyl)-1,3,4-oxadiazol-2-yl]-2-pyridyl]methyl]-5-(3-piperazin-1-ylphenyl)-1,3,4-oxadiazol-2-one]
IC50 (human recombinant HDAC1): > 50000 nM | HDAC6 selectivity (fold) (human recombinant HDAC6): 640 fold | IC50 (human recombinant HDAC6): 78.1 nM

CN1CCN(c2ccc(-c3nn(Cc4ccc(-c5nnc(C(F)F)o5)cn4)c(=O)o3)c(F)c2)CC1 [Compound 24, 3-[[5-[5-(difluoromethyl)-1,3,4-oxadiazol-2-yl]-2-pyridyl]methyl]-5-[2-fluoro-4-(4-methylpiperazin-1-yl)phenyl]-1,3,4-oxadiazol-2-one]
IC50 (human recombinant HDAC1): > 50000 nM | HDAC6 selectivity (fold) (human recombinant HDAC6): 487 fold | IC50 (human recombinant HDAC6): 103 nM

FC(F)c1nnc(-c2ccc(Cn3nc(-c4ccc(CN5CCN(C6CCC6)CC5)cc4)oc3=S)nc2)o1 [Compound 78, 5-[4-[(4-cyclobutylpiperazin-1-yl)methyl]phenyl]-3-[[5-[5-(difluoromethyl)-1,3,4-oxadiazol-2-yl]-2-pyridyl]methyl]-1,3,4-oxadiazol-2-thione]
IC50 (human recombinant HDAC1): > 50000 nM | HDAC6 selectivity (fold) (human recombinant HDAC6): 498 fold | IC50 (human recombinant HDAC6): 100 nM

CN1CCC(c2cc(-c3nn(Cc4ccc(-c5nnc(C(F)F)o5)cn4)c(=S)o3)ccc2F)CC1 [Compound 115, 3-[[5-[5-(difluoromethyl)-1,3,4-oxadiazol-2-yl]-2-pyridyl]methyl]-5-[4-fluoro-3-(1-methyl-4-piperidyl)phenyl]-1,3,4-oxadiazol-2-thione]
IC50 (human recombinant HDAC1): > 50000 nM | HDAC6 selectivity (fold) (human recombinant HDAC6): 483 fold | IC50 (human recombinant HDAC6): 104 nM

Fc1cc(-c2nnc(C(F)F)o2)cnc1Cn1nc(-c2cnccn2)oc1=S [Compound 53, 3-[[5-[5-(difluoromethyl)-1,3,4-oxadiazol-2-yl]-3-fluoro-2-pyridyl]methyl]-5-pyrazine-2-yl-1,3,4-oxadiazol-2-thione]
IC50 (human recombinant HDAC1): > 50000 nM | HDAC6 selectivity (fold) (human recombinant HDAC6): 560 fold | IC50 (human recombinant HDAC6): 89.3 nM

CN1CCN(c2cccc(-c3nn(Cc4ccc(-c5nnc(C(F)F)o5)cn4)c(=S)o3)c2)CC1 [Compound 75, 3-[[5-[5-(difluoromethyl)-1,3,4-oxadiazol-2-yl]-2-pyridyl]methyl]-5-[3-(4-methylpiperazin-1-yl)phenyl]-1,3,4-oxadiazol-2-thione]
IC50 (human recombinant HDAC1): > 50000 nM | HDAC6 selectivity (fold) (human recombinant HDAC6): 1149 fold | IC50 (human recombinant HDAC6): 43.5 nM

Fc1cc(-c2nnc(C(F)F)o2)cnc1Cn1nc(-c2ccccn2)oc1=S [Compound 47, 3-[[5-[5-(difluoromethyl)-1,3,4-oxadiazol-2-yl]-3-fluoro-2-pyridyl]methyl]-5-(2-pyridyl)-1,3,4-oxadiazol-2-thione]
IC50 (human recombinant HDAC1): > 50000 nM | HDAC6 selectivity (fold) (human recombinant HDAC6): 1548 fold | IC50 (human recombinant HDAC6): 32.3 nM

O=c1oc(-c2cccc(N3CCN(C4CCC4)CC3)c2)nn1Cc1ccc(-c2nnc(C(F)F)o2)cn1 [Compound 39, 5-[3-(4-cyclobutylpiperazin-1-yl)phenyl]-3-[[5-[5-(difluoromethyl)-1,3,4-oxadiazol-2-yl]-2-pyridyl]methyl]-1,3,4-oxadiazol-2-one]
IC50 (human recombinant HDAC1): > 50000 nM | HDAC6 selectivity (fold) (human recombinant HDAC6): 605 fold | IC50 (human recombinant HDAC6): 82.7 nM

Fc1cc(-c2nnc(C(F)F)o2)cnc1Cn1nc(-c2ccc(CN3CC[C@@H](F)C3)cc2)oc1=S [Compound 113, 3-[[5-[5-(difluoromethyl)-1,3,4-oxadiazol-2-yl]-3-fluoro-2-pyridyl]methyl]-5-[4-[[(3R)-3-fluoropyrrolidin-1-yl]methyl]phenyl]-1,3,4-oxadiazol-2-thione]
IC50 (human recombinant HDAC1): > 50000 nM | HDAC6 selectivity (fold) (human recombinant HDAC6): 778 fold | IC50 (human recombinant HDAC6): 64.3 nM

CN(C)Cc1ccc(-c2nn(Cc3ncc(-c4nnc(C(F)F)o4)cc3F)c(=S)o2)cc1 [Compound 107, 3-[[5-[5-(difluoromethyl)-1,3,4-oxadiazol-2-yl]-3-fluoro-2-pyridyl]methyl]-5-[4-[(dimethylamino)methyl]phenyl]-1,3,4-oxadiazol-2-thione]
IC50 (human recombinant HDAC1): > 50000 nM | HDAC6 selectivity (fold) (human recombinant HDAC6): 1163 fold | IC50 (human recombinant HDAC6): 43 nM

O=c1sc(-c2ccc(CN3CCN(C4CCC4)CC3)cc2)nn1Cc1ccc(-c2nnc(C(F)F)o2)cn1 [Compound 67]
IC50 (human recombinant HDAC1): > 50000 nM | HDAC6 selectivity (fold) (human recombinant HDAC6): 890 fold | IC50 (human recombinant HDAC6): 56.2 nM

O=c1oc(-c2ccc(N3CCNCC3)cc2F)nn1Cc1ccc(-c2nnc(C(F)F)o2)cn1 [Compound 23, 3-[[5-[5-(difluoromethyl)-1,3,4-oxadiazol-2-yl]-2-pyridyl]methyl]-5-(2-fluoro-4-piperazin-1-yl-phenyl)-1,3,4-oxadiazol-2-one]
IC50 (human recombinant HDAC1): > 50000 nM | HDAC6 selectivity (fold) (human recombinant HDAC6): 942 fold | IC50 (human recombinant HDAC6): 53.1 nM

CC1CCN(Cc2ccc(-c3nn(Cc4ccc(-c5nnc(C(F)F)o5)cn4)c(=S)o3)cc2)CC1 [Compound 96, 3-[[5-[5-(difluoromethyl)-1,3,4-oxadiazol-2-yl]-2-pyridyl]methyl]-5-[4-[(4-methyl-1-piperidyl)methyl]phenyl]-1,3,4-oxadiazol-2-thione]
IC50 (human recombinant HDAC1): > 50000 nM | HDAC6 selectivity (fold) (human recombinant HDAC6): 1208 fold | IC50 (human recombinant HDAC6): 41.4 nM

CN(C)Cc1ccc(-c2nn(Cc3ccc(-c4nnc(C(F)F)o4)cn3)c(=S)o2)s1 [Compound 121, 3-[[5-[5-(difluoromethyl)-1,3,4-oxadiazol-2-yl]-2-pyridyl]methyl]-5-[5-[(dimethylamino)methyl]-2-thienyl]-1,3,4-oxadiazol-2-thione]
IC50 (human recombinant HDAC1): > 50000 nM | HDAC6 selectivity (fold) (human recombinant HDAC6): 639 fold | IC50 (human recombinant HDAC6): 78.2 nM

O=c1oc(-c2cccc3[nH]ccc23)nn1Cc1ccc(-c2nnc(C(F)F)o2)cn1 [Compound 34, 3-[[5-[5-(difluoromethyl)-1,3,4-oxadiazol-2-yl]-2-pyridyl]methyl]-5-(1H-indol-4-yl)-1,3,4-oxadiazol-2-one]
IC50 (human recombinant HDAC1): > 50000 nM | HDAC6 selectivity (fold) (human recombinant HDAC6): 1695 fold | IC50 (human recombinant HDAC6): 29.5 nM
